Here are results for nine compounds from ChEMBL document CHEMBL1133582, “Water-soluble phosphate prodrugs of 1-propargyl-8-styrylxanthine derivatives, A(2A)-selective adenosine receptor antagonists” (J Med Chem, 2000).

pKi: −log10 of the molar value.

Test [1] concerns the target T1, Adenosine receptor A2b (Homo sapiens, UniProt P29275).
T1 sequence (P29275 whole entry): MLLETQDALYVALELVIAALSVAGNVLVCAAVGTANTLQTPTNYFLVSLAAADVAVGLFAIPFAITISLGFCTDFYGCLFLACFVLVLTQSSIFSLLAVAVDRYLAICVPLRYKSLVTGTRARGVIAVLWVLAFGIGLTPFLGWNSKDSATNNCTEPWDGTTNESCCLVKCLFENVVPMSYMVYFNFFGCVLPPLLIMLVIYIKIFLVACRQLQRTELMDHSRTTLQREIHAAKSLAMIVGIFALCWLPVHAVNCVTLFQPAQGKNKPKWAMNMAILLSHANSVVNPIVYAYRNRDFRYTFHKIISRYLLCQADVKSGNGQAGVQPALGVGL
Nature of the test: Inhibition of NECA-induced stimulation of adenylate cyclase at human adenosine A2B receptor. It is filed as functional.

Test [2] deals with T2, Adenosine receptor A3 (Homo sapiens, UniProt P0DMS8).
T2 sequence (P0DMS8 whole entry): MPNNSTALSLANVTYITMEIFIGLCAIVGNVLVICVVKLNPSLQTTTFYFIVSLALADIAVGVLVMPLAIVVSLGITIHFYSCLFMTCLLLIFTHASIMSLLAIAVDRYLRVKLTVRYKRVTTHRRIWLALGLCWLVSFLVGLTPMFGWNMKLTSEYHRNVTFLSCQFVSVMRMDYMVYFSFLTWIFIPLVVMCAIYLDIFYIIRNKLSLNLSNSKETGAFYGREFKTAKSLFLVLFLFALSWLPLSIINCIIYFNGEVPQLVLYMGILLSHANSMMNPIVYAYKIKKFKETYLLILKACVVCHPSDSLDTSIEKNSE
Nature of the test: Binding affinity against human adenosine A3 receptor in CHO cell membranes using [3H]NECA.

The target of test [3] is T3, Adenosine receptor A1 (Rattus norvegicus, UniProt P25099).
T3 sequence (P25099 whole entry): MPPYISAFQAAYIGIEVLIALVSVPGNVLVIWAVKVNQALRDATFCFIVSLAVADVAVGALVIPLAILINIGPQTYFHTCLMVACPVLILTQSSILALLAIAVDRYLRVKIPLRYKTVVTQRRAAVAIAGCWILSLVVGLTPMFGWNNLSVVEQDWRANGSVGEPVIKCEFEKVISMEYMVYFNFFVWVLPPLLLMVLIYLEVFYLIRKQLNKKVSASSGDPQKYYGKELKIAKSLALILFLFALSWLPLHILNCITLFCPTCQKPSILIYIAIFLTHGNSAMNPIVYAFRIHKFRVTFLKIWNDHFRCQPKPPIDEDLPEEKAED
Nature of the test: Binding affinity against adenosine A1 receptor of rat without and after pre-incubation with alkaline phosphatase.

Test [4] deals with T3, Adenosine receptor A1. Put plainly: Binding affinity against adenosine A1 receptor of rat brain cortical membranes using [3H]CHA.
Test [5] addresses Adenosine receptor A2a (Rattus norvegicus, UniProt P30543). Put plainly: Binding affinity against adenosine A2A receptor of rat brain striatal membranes using [3H]CGS-21680.
Test [6] concerns the target T4, Adenosine receptor A2a (Homo sapiens, UniProt P29274).
Description: Binding affinity against human adenosine A2A receptor using [3H]CGS-21680 (95% confidence)
Test [7] concerns the target T4, Adenosine receptor A2a. This is another data set of the same source.
Description: Binding affinity against human post-mortem brain adenosine A2A receptor using nuclei caudati and [3H]-CGS-21,680
Test [8] deals with T5, Adenosine receptor A1 (Homo sapiens, UniProt P30542).
T5 sequence (P30542 whole entry): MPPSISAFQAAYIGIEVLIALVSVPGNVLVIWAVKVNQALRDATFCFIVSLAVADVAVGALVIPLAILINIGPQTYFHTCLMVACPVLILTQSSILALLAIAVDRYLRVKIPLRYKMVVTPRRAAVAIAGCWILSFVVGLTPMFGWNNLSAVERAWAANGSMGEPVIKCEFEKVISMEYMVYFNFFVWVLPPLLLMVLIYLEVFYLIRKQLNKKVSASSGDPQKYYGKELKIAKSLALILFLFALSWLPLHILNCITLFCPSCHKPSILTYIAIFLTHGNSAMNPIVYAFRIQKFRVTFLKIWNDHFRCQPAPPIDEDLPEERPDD
Put plainly: Binding affinity against human adenosine A1 receptor using [3H]-CCPA (95% confidence).

Chain of Adenosine receptor A2a (Rattus norvegicus, UniProt P30543) (P30543 whole entry): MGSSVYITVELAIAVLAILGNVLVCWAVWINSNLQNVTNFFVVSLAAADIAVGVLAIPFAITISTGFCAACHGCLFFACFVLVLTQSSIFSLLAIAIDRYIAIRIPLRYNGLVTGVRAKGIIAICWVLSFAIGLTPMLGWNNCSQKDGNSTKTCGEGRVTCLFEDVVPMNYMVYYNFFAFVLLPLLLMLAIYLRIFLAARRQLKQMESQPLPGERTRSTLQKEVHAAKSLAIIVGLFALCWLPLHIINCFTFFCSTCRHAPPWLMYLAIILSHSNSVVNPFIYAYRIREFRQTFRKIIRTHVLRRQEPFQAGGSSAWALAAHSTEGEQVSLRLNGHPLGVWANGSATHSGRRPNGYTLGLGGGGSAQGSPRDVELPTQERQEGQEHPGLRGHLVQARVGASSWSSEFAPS
T4 sequence (P29274 whole entry): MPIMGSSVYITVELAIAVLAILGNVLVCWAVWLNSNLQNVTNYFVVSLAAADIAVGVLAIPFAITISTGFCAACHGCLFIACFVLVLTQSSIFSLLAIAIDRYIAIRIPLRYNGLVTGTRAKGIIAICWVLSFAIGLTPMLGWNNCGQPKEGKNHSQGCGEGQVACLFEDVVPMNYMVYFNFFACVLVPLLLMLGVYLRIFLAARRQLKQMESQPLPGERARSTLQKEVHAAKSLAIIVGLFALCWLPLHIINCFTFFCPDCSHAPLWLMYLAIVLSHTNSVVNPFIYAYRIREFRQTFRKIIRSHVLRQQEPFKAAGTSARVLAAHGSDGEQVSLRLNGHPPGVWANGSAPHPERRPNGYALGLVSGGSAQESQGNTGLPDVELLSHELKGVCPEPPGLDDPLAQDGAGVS

In general, pKi refers to the negative decadic logarithm of the Ki, by convention in mol/L. High values mean a small Ki, low ones a large Ki. As for `C#CCn1c(=O)c2c(nc(/C=C/c3cccc(Br)c3)n2C)n(C)c1=O`, the pKi in test [1] and in test [2] was below 5.00 in each case.
`C#CCn1c(=O)c2c(nc(/C=C/c3cccc(OC)c3)n2C)n(CCCOP(=O)(O)O)c1=O` had a negative logarithm of the Ki (pKi) in test [3] of 5.95.
Take `C#CCn1c(=O)c2c(nc(/C=C/c3cccc(Br)c3)n2C)n(CCCO)c1=O`: the values for the pKi in test [4] and in test [5] were 6.20 and 7.89, respectively.
The matching figures for `C#CCn1c(=O)c2c(nc(/C=C/c3cccc(O)c3)n2C)n(C)c1=O`: 6.03 and 7.68.
Turning to `C#CCn1c(=O)c2c(nc(/C=C/c3cccc(Br)c3)n2C)n(CCO)c1=O`, the pKi in test [4] was 5.89; in test [5] it was 7.60.
For the compound `C#CCn1c(=O)c2c(nc(/C=C/c3cccc(N)c3)n2C)n(C)c1=O`, the pKi was 5.97 in test [4] and 7.38 in test [5].
The matching figures for `C#CCn1c(=O)c2c(nc(/C=C/c3cccc(OC)c3)n2C)n(CCO)c1=O`: 5.98 and 7.41.
The matching figures for `C#CCn1c(=O)c2c(nc(/C=C/c3cccc(OC)c3)n2C)n(C)c1=O`: 5.89 and 7.92.
Regarding `C#CCn1c(=O)c2c(nc(/C=C/c3cccc(OC)c3)n2C)n(CCCO)c1=O`, the pKi in test [1] is below 5.00; in test [4] it was 6.05; in test [6], 8.30; in test [7] it was 7.82; in test [5], 8.10; in test [2], below 5.00. The compound also gave a negative logarithm of the Ki (pKi) in test [8] of 5.60.
